Experiments:
[1] = tested on: Tau-BiFC cells; assay: Cell viability (cytotoxicity) in tau-BiFC cells, count of stained nuclei; format: cell-based; conditions: Forskolin-only group = 100% cell viability; for Cell viability (% @10 μM): compound 10 μM; for Cell viability: compounds marked *: measured at 3 μM
In short: (§1)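 Tau-BiFC cells were exposed for 48 h to compound (1, 3, 10 μM for screening; 0.03–30 μM for dose-response) plus 30 μM Forskolin to induce aggregation. BiFC fluorescence was normalised to Forskolin-only minus untreated controls, with IC50 from nonlinear regression. Viability was Hoechst-stained nuclei counts relative to Forskolin-only wells.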

[2] = biological target: T1, tau protein (Homo sapiens, UniProt P10636); assay: Tau-BiFC cell model: inhibition of tau protein aggregation; format: cell-based; conditions: for remaining activity at 10 µM / remaining activity at 3 µM: 48 h, Forskolin-only group = 100% tau protein-aggregated state; for remaining activity at 10 µM: compound 10 μM, BiFC fluorescence, read-out: Response (% @10 μM); for IC50: Tau BiFC in cells, with Forskolin 30 μM, 48 hours; for remaining activity at 3 µM: compounds marked *: measured at 3 μM, read-out: Response
T1 construct: fused on or other part: Split fluorescent-protein halves for BiFC are fused to tau; In the published tau-BiFC line these are Venus VN173 and VC155
T1 sequence (P10636 2-441 isoform P10636-8 limits assumed): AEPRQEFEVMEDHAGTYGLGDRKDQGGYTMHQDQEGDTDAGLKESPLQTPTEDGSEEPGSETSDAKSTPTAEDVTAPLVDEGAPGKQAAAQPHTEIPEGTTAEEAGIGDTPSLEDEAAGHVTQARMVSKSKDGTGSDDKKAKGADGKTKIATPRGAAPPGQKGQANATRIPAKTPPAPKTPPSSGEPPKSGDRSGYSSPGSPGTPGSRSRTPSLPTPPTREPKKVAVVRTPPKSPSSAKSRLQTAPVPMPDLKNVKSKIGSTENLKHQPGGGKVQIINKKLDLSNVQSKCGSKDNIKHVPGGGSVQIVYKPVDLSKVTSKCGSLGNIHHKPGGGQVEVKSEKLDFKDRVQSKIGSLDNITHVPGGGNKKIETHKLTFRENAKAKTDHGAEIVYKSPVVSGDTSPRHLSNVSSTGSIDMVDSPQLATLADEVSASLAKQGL
In short: as §1

[3] = biological target: T2, CYP2C9 (Homo sapiens, UniProt P11712); assay: Inhibitory effect on CYP coenzyme activity, human liver microsomes; format: in vitro ADME; conditions: compound 10 μM; human liver microsomes 0.25 mg/mL; substrate diclofenac; 15 minutes
T2 construct: human liver microsomes (0.25 mg/mL); from tissue; host or cells: human liver microsomes
T2 sequence (P11712 whole entry): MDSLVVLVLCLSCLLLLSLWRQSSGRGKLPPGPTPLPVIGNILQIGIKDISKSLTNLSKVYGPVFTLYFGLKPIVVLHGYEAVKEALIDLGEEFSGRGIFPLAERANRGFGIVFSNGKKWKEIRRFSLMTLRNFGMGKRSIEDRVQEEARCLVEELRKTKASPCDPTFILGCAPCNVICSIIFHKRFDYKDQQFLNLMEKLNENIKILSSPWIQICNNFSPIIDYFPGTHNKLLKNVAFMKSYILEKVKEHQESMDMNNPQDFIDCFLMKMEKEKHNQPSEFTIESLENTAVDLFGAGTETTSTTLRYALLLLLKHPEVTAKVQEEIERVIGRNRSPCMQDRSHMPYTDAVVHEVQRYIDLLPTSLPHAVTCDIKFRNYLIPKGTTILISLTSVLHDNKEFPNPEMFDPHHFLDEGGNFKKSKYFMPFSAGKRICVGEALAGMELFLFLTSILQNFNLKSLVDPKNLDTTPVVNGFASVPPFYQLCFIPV
Method: (§2) The inhibitory effects of the compounds prepared according to Examples 1 to 175 on CYP coenzyme activity were identified. Specifically, human liver microsomes (0.25 mg/mL), a 0.1 M phosphate buffer solution (pH 7.4), a substrate drug cocktail of five types of drug metabolism enzymes (50 μM phenacetin, 10 μM diclofenac, 100 μM S-mephenytoin, 5 μM dextromethorphan, and 2.5 μM midazolam), and the compound at a concentration of 0 μM or 10 μM were mixed and pre-cultured at 37° C. for 5 minutes, and then further cultured at 37° C. for 15 minutes together with an NADPH generation system solution added thereto. Thereafter, the reaction was terminated by adding an acetonitrile solution containing an internal standard material (terfenadine) and centrifuged for 5 minutes (14,000 rpm, 4° C.), and then a supernatant was injected into an LC-MS/MS system for simultaneous analysis of metabolites of the substrate drugs to thereby evaluate the inhibitory effects on drug metabolism.
(§3) Metabolites of each CYP coenzyme indicator drug generated through the reaction were analyzed using the Shimadzu Nexera XR system and TSQ Vantage (Thermo). In an HPLC column, Kinetex C18 (2.1 mm×100 mm, 2.6 μm, particle size; Phenomenex, USA) was used, and mobile phases were (A) distilled water containing 0.1% formic acid and (B) acetonitrile containing 0.1% formic acid, and a gradient program shown in Table 3 was applied thereto.
(§4) The generated metabolites were quantified using a multiple reaction monitoring (MRM) quantification mode, and Xcalibur (version 1.6.1) was used for data analysis. Inhibitory effects of the novel compound prepared according to the examples of the present invention on CYP coenzyme activity are shown in Table 4 below.

[4] = biological target: T3, CYP2C19 (Homo sapiens, UniProt P33261); assay: as above; format: in vitro ADME; conditions: compound 10 μM; human liver microsomes 0.25 mg/mL; substrate S-mephenytoin; 15 minutes
T3 construct: human liver microsomes (0.25 mg/mL); from tissue; host or cells: human liver microsomes
T3 sequence (P33261 whole entry): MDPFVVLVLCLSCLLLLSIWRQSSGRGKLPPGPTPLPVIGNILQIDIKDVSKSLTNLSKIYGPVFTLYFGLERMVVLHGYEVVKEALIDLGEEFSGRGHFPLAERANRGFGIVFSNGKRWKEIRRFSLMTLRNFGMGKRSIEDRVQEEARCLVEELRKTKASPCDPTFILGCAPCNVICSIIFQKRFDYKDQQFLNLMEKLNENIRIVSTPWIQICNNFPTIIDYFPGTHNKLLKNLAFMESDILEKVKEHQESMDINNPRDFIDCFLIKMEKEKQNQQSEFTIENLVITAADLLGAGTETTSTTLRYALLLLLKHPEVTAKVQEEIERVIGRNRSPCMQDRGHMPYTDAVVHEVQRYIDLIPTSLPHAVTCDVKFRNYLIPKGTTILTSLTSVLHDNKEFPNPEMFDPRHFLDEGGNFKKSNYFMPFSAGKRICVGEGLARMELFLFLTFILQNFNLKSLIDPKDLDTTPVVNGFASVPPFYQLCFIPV
Method: as §2, §3, §4

[5] = biological target: T4, CYP2D6 (Homo sapiens, UniProt P10635); assay: as above; format: in vitro ADME; conditions: compound 10 μM; human liver microsomes 0.25 mg/mL; substrate dextromethorphan; 15 minutes
T4 construct: human liver microsomes (0.25 mg/mL); from tissue; host or cells: human liver microsomes
T4 sequence (P10635 whole entry): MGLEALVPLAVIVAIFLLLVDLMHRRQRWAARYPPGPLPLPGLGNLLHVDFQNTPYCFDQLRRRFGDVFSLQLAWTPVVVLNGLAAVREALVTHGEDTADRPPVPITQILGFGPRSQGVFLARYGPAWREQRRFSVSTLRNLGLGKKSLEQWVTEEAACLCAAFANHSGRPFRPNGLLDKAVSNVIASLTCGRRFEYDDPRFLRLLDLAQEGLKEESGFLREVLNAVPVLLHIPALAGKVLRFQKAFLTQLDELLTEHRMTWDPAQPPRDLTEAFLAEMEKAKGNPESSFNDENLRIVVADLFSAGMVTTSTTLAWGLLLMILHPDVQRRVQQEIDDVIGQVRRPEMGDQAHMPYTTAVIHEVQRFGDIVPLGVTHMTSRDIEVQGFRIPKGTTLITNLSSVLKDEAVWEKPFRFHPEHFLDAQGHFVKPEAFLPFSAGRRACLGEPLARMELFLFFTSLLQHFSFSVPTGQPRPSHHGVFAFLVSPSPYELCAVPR
Method: as §2, §3, §4

[6] = biological target: T5, CYP1A2 (Homo sapiens, UniProt P05177); assay: as above; format: in vitro ADME; conditions: compound 10 μM; human liver microsomes 0.25 mg/mL; substrate phenacetin; 15 minutes
T5 construct: human liver microsomes (0.25 mg/mL); from tissue; host or cells: human liver microsomes
T5 sequence (P05177 1-516): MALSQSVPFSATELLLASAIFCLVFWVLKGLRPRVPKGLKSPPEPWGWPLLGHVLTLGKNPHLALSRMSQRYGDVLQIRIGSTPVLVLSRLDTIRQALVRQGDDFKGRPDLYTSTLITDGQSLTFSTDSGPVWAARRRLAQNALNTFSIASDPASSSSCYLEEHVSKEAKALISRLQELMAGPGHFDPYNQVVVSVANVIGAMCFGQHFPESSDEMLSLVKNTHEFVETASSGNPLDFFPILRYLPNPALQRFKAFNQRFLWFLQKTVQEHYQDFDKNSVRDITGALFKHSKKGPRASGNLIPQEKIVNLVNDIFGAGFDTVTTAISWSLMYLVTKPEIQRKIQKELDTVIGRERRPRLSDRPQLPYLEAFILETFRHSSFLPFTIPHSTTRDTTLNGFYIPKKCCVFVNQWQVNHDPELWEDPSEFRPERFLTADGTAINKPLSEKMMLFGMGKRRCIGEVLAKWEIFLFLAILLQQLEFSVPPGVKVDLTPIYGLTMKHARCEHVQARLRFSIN
Method: as §2, §3, §4

[7] = biological target: T6, CYP3A4 (Homo sapiens, UniProt P08684); assay: as above; format: in vitro ADME; conditions: compound 10 μM; human liver microsomes 0.25 mg/mL; substrate midazolam; 15 minutes
T6 construct: human liver microsomes (0.25 mg/mL); from tissue; host or cells: human liver microsomes
T6 sequence (P08684 whole entry): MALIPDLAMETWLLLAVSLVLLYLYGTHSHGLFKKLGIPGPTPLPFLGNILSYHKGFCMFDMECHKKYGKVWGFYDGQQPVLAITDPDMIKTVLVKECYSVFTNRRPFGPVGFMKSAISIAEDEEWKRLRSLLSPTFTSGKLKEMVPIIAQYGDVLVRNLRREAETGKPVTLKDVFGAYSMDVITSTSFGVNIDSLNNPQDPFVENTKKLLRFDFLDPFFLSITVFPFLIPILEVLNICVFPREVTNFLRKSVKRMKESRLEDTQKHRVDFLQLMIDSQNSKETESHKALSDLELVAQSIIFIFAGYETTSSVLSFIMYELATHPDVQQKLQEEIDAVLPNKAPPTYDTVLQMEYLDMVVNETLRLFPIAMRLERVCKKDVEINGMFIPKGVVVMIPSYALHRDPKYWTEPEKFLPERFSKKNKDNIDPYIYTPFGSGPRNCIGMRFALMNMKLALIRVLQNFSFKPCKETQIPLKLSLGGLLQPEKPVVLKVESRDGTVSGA
Method: as §2, §3, §4

[8] = Liver microsome stability; format: in vitro ADME, mouse; conditions: amount of substrate remaining; compound 1 μM, 30 minutes, 37° C., NADPH
Method: (§5) The stability of liver microsomes due to the compounds prepared according to Examples 1 to 175 was confirmed. Specifically, four types of liver microsomes (human, dog, rat, and mouse, each 0.25 mg/mL), a 0.1 M phosphate buffer solution (pH 7.4), and each of the compounds at a concentration of 1 μM were mixed and pre-cultured at 37° C. for 5 minutes and further cultured at 37° C. for 30 minutes together with an NADPH generation system solution added thereto. Thereafter, the reaction was terminated by adding an acetonitrile solution containing an internal standard material (chloropropamide) and centrifuged for 5 minutes (14,000 rpm, 4° C.), and then a supernatant was injected into an LC-MS/MS system for analysis of substrate drugs to thereby evaluate metabolic stability due to 8 types of compounds.
(§6) The amount of the substrate remaining after the reaction was analyzed using the Shimadzu Nexera XR system and TSQ Vantage (Thermo). In an HPLC column, Kinetex XB-C18 (2.1 mm×100 mm, particle size of 2.6 μm; Phenomenex, USA) was used, and mobile phases were (A) distilled water containing 0.1% formic acid and (B) acetonitrile containing 0.1% formic acid. Analyst software (version 1.6.3) and Xcalibur (version 1.6.1) were used for data analysis.

[9] = Liver microsome stability; format: in vitro ADME, rat; conditions: amount of substrate remaining; compound 1 μM, 30 minutes, 37° C., NADPH
Method: as §5, §6

[10] = Liver microsome stability; format: in vitro ADME, human; conditions: amount of substrate remaining; compound 1 μM, 30 minutes, 37° C., NADPH
Method: as §5, §6

SMILES	Cell viability (% @10 μM) [1]	remaining activity at 10 µM [2]	IC50 [2]	CYP2C9 [3]	CYP2C19 [4]	CYP2D6 [5]	CYP1A2 [6]	CYP3A4 [7]	Mouse (%) [8]	Rat (%) [9]	Human (%) [10]	Cell viability [1]	remaining activity at 3 µM [2]
Cc1ccc(C(=O)Nc2ccc(NN=C(C#N)C#N)cn2)cc1 [Compound 23, (6-(4-methylbenzamido)pyridin-3-yl)carbonohydrazonoyl dicyanide]	114.2%	0%	130 nM	40.6	82.5	>100	85	83.3					
COc1cc(NN=C(C#N)C#N)ccc1C(=O)Nc1cnc(C)cn1 [Compound 104, (3-methoxy-4-(5-methylpyrazin-2-ylcarbamoyl)phenyl)carbonohydrazonoyl dicyanide]	142%	0%	260 nM	48.6	82.4	>100	78.4	66.1	97.2%	87.5%	84.1%		
N#CC(C#N)=NNc1ccc(OCc2cccnc2)cc1 [Compound 124, (4-(pyridin-3-ylmethoxy)phenyl)carbonohydrazonoyl dicyanide]	140.9%	0%	620 nM	4.4	69.9	46.6	23.4	37.5					
N#CC(C#N)=NNc1ccc(OCc2ncccn2)cc1 [Compound 136, (4-(pyrimidin-2-ylmethoxy)phenyl)carbonohydrazonoyl dicyanide]	95.7%	0%	1440 nM	70	76.5	94.4	80.3	88.9					
N#CC(C#N)=NNc1ccc(OCc2cn[nH]c2)cc1 [Compound 137, (4-((1H-pyrazol-4-yl)methoxy)phenyl)carbonohydrazonoyl dicyanide]				37	>100	>100	>100	84.8				129%	31%
Cc1cnc(COc2ccc(NN=C(C#N)C#N)cc2)cn1 [Compound 138, (4-((5-methylpyrazin-2-yl)methoxy)phenyl)carbonohydrazonoyl dicyanide]				92.5	>100	92.7	97.4	89.4				133%	15%
CC(Oc1ccc(NN=C(C#N)C#N)cc1)c1cccnc1 (centres unmarked) [Compound 140, (4-(1-(pyridin-3-yl)ethoxy)phenyl)carbonohydrazonoyl Dicyanide]				11.7	>100	69.6	96.7	30.8				135%	18%
Cc1cc(NN=C(C#N)C#N)ccc1OCc1cc[nH]n1 [Compound 151, (4-((1H-pyrazol-3-yl)methoxy)-3-methylphenyl)carbonohydrazonoyl dicyanide]			22 nM	19.4	>100	94.8	51.8	88				126%	-32%
COc1cc(NN=C(C#N)C#N)ccc1OCc1ccccc1 [Compound 153, (4-(benzyloxy)-3-methoxyphenyl)carbonohydrazonoyl dicyanide]			37 nM	44.1	100	90.7	67.9	98.9				122%	-43%
COc1cc(NN=C(C#N)C#N)ccc1OCc1ccc(C)cc1 [Compound 154, (3-methoxy-4-(4-methylbenzyloxy)phenyl)carbonohydrazonoyl dicyanide]			32 nM	26.6	76.3	81.7	79.1	72.5				106%	-52%
COc1cc(NN=C(C#N)C#N)ccc1OCc1cnccn1 [Compound 159, (3-methoxy-4-(pyrazin-2-ylmethoxy)phenyl)carbonohydrazonoyl dicyanide]			7 nM	54.7	88	86.1	42.4	82.1				114%	-40%
COc1cc(NN=C(C#N)C#N)ccc1OCc1cccnc1 [Compound 160, (3-methoxy-4-(pyridin-3-ylmethoxy)phenyl)carbonohydrazonoyl dicyanide]			7 nM	6.5	68.5	59.7	5.8	17.9				111%	-33%
COc1cc(NN=C(C#N)C#N)ccc1OCc1cnc(C)cn1 [Compound 162, (3-methoxy-4-((5-methylpyrazin-2-yl)methoxy)phenyl)carbonohydrazonoyl dicyanide]			49 nM	73.5	75.9	70.3	79.8	73.3				115%	-25%

— US12649723B2, “Carbonohydrazonoyl dicyanide compounds comprising 2 or more aryl or heteroaryl connected via linker and use thereof” (KOREA INSTITUTE OF SCIENCE AND TECHNOLOGY, priority 2020, dated 2026)
